Experimental data reported in ChEMBL document CHEMBL4808207, “Macrocyclic Peptides as a Novel Class of NNMT Inhibitors: A SAR Study Aimed at Inhibitory Activity in the Cell” (ACS Med Chem Lett, 2021).
pIC50: −log10 of the molar value. Bridge positions count the residues as written; N and C are the ends. Square brackets hold non-standard residues; d marks the D form. Peptide text beside a SMILES is read from it. Pro(cis-4-CF3) = O=C(O)[C@@H]1C[C@H](C(F)(F)F)CN1; Phe(4-CONH2) = NC(=O)c1ccc(C[C@H](N)C(=O)O)cc1; Bip = N[C@@H](Cc1ccc(-c2ccccc2)cc1)C(=O)O; Pro(4,4-F2) = O=C(O)[C@@H]1CC(F)(F)CN1; Lys(Me2) = CN(C)CCCC[C@H](N)C(=O)O; NMeF = CN[C@@H](Cc1ccccc1)C(=O)O; tBuAla = CC(C)(C)C[C@H](N)C(=O)O; Tic = O=C(O)[C@@H]1Cc2ccccc2CN1; hLys = NCCCCC[C@H](N)C(=O)O; NMeC = CN[C@@H](CS)C(=O)O

Molecular target: T1, Nicotinamide N-methyltransferase (Mus musculus, UniProt O55239)
T1 sequence (O55239 whole entry): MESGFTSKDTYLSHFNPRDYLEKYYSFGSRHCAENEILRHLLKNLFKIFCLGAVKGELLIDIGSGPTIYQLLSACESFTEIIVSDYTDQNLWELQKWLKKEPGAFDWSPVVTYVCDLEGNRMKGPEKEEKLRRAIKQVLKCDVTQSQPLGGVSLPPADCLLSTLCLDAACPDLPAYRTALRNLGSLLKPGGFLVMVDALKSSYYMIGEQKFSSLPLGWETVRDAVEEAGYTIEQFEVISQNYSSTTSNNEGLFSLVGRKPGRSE
Assay: Inhibition of mouse recombinant NNMT using nicotinamide and SAM as substrate assessed as reduction in 1-methyl-nicotinamide formation incubated for 22 to 24 hrs by RapidFire Mass spectroscopy

Structure (SMILES)	pIC50
CN(C)CCCC[C@@H]1NC(=O)[C@H](Cc2ccc(O)cc2)NC(=O)[C@@H]2CCCN2C(=O)[C@H](Cc2ccccc2)N(C)C(=O)CSC[C@@H](C(N)=O)NC(=O)[C@H](Cc2ccc(C(N)=O)cc2)NC(=O)[C@@H]2Cc3ccccc3CN2C(=O)[C@@H]2CCCN2C1=O ({CH2CO}-[NMeF]PY[Lys(Me2)]P[Tic][Phe(4-CONH2)]C-NH2; thioether N-8)	5.87
CN1C(=O)CSC[C@@H](C(N)=O)NC(=O)[C@H](Cc2ccc(C(N)=O)cc2)NC(=O)[C@@H]2Cc3ccccc3CN2C(=O)[C@@H]2CCCN2C(=O)[C@H](CCCCN)NC(=O)[C@H](CC(C)(C)C)NC(=O)[C@@H]2CCCN2C(=O)[C@@H]1Cc1ccccc1 ({CH2CO}-[NMeF]P[tBuAla]KP[Tic][Phe(4-CONH2)]C-NH2; thioether N-8)	7.64
CN1C(=O)[C@H](Cc2ccc(C(N)=O)cc2)NC(=O)[C@@H]2Cc3ccccc3CN2C(=O)[C@@H]2CCCN2C(=O)[C@H](CCCNC(=N)N)NC(=O)[C@H](Cc2ccc(O)cc2)NC(=O)[C@@H]2CCCN2C(=O)[C@H](Cc2ccccc2)NC(=O)CSC[C@H]1C(N)=O ({CH2CO}-FPYRP[Tic][Phe(4-CONH2)][NMeC]-NH2; thioether N-8)	5.10
CC(C)C[C@@H]1NC(=O)[C@@H]2C[C@H](C(F)(F)F)CN2C(=O)[C@H](Cc2ccccc2)NC(=O)CSC[C@@H](C(N)=O)NC(=O)[C@H](Cc2ccc(C(N)=O)cc2)NC(=O)[C@@H]2Cc3ccccc3CN2C(=O)[C@@H]2CCCN2C(=O)[C@H](CCCCN)NC1=O ({CH2CO}-F[Pro(cis-4-CF3)]LKP[Tic][Phe(4-CONH2)]C-NH2; thioether N-8)	6.67

The next lines start with the values.

pIC50	Structure (SMILES)
5.87	CC(C)C[C@@H]1NC(=O)[C@@H]2CCCN2C(=O)[C@H](Cc2ccccc2)NC(=O)CSC[C@@H](C(N)=O)NC(=O)[C@H](Cc2ccc(C(N)=O)cc2)NC(=O)[C@@H]2Cc3ccccc3CN2C(=O)[C@@H]2C[C@H](C(F)(F)F)CN2C(=O)[C@H](CCCCN)NC1=O ({CH2CO}-FPLK[Pro(cis-4-CF3)][Tic][Phe(4-CONH2)]C-NH2; thioether N-8)
7.14	CC(C)C[C@@H]1NC(=O)[C@@H]2CCCN2C(=O)[C@H](Cc2ccccc2)NC(=O)CSC[C@@H](C(N)=O)NC(=O)[C@H](Cc2ccc(-c3ccccc3)cc2)NC(=O)[C@@H]2Cc3ccccc3CN2C(=O)[C@@H]2CCCN2C(=O)[C@H](CCCCN)NC1=O ({CH2CO}-FPLKP[Tic][Bip]C-NH2; thioether N-8)
7.89	CC(C)C[C@@H]1NC(=O)[C@@H]2CCCN2C(=O)[C@H](Cc2ccccc2)NC(=O)CSC[C@@H](C(N)=O)NC(=O)[C@H](Cc2ccc(C(N)=O)cc2)NC(=O)[C@@H]2Cc3ccccc3CN2C(=O)[C@@H]2CC(F)(F)CN2C(=O)[C@H](CCCCN)NC1=O ({CH2CO}-FPLK[Pro(4,4-F2)][Tic][Phe(4-CONH2)]C-NH2; thioether N-8)
7.74	CC(C)C[C@@H]1NC(=O)[C@@H]2CC(F)(F)CN2C(=O)[C@H](Cc2ccccc2)NC(=O)CSC[C@@H](C(N)=O)NC(=O)[C@H](Cc2ccc(C(N)=O)cc2)NC(=O)[C@@H]2Cc3ccccc3CN2C(=O)[C@@H]2CCCN2C(=O)[C@H](CCCCN)NC1=O ({CH2CO}-F[Pro(4,4-F2)]LKP[Tic][Phe(4-CONH2)]C-NH2; thioether N-8)
8.89	CC(C)C[C@@H]1NC(=O)[C@@H]2CCCN2C(=O)[C@H](Cc2ccccc2)N(C)C(=O)CSC[C@@H](C(N)=O)NC(=O)[C@H](Cc2ccc(C(N)=O)cc2)NC(=O)[C@@H]2Cc3ccccc3CN2C(=O)[C@@H]2CCCN2C(=O)[C@H](CCCCCN)NC1=O ({CH2CO}-[NMeF]PL[hLys]P[Tic][Phe(4-CONH2)]C-NH2; thioether N-8)
6.66	CN1C(=O)CSC[C@@H](C(N)=O)NC(=O)[C@H](Cc2ccc(C(N)=O)cc2)NC(=O)[C@@H]2Cc3ccccc3CN2C(=O)[C@@H]2CCCN2C(=O)[C@H](CCCNC(=N)N)NC(=O)[C@H](Cc2ccc(O)cc2)NC(=O)[C@@H]2CCCN2C(=O)[C@@H]1Cc1ccccc1 ({CH2CO}-[NMeF]PYRP[Tic][Phe(4-CONH2)]C-NH2; thioether N-8)
